Experimental findings from patent US20240180893A1, “METHODS OF TREATMENT OF BREAST CANCER” (AstraZeneca AB, priority 2022, published 2024) are described below.

The test system of one experiment is ESR1m ctDNA. Briefly: SERENA-2 phase 2 study: changes in ESR1m ctDNA summed Variant Allele Frequency (sVAF %). Type of experiment: in vivo, human (post-menopausal women). From the text: FIG. 6: Changes in ESR1m ctDNA summed Variant Allele Frequency (sVAF %) by treatment group and visit comparisons (pre-treatment is a comparison of samples collected at screening and cycle 1 day 1, C×D1 are comparisons of samples collected at cycle 1 day 1 and cycle×day 1). Variants defined as ESR1m are E380Q, V422del, S463P, L536H/P/R, Y537C/D/N/S. Points represent individual patients, box represents upper quartile, median and lower quartile, whiskers represent 1.5 interquartile range. Treatment with camizestrant 75 mg and 150 mg caused a 100% or near 100% reduction in the level of ESR1m at all timepoints.
Blood and plasma samples for circulating tumour (ctDNA) and cancer antigen 15-3 (CA15-3) analyses will be collected at screening, on Day 1 and Day 15 of Cycle 1, on Day 1 of Cycles 2 to 5, 8-weekly (Day 1 of every 2nd cycle) from Week 25 (Cycle 7) to coincide with tumour imaging, at the EOT and/or disease progression.
The following samples for biomarker research are optional and will collected from patients in the study where possible as specified in the SoA (Table 6). • Paired tumour biopsy samples; pre- and on-treatment. Samples will be collected for patients with tumours amenable to biopsies in up to 12 patients per treatment group. • Additional tumour biopsy samples may be collected at time of progression. Blood samples for circulating tumour DNA. […]

The test system of experiment [1] is HR+, HER2− metastatic or loco-regionally recurrent breast cancer. The experiment can be described thus: SERENA-2 phase 2 study: PFS, RECIST 1.1, by Blinded Independent Central Review (BICR). Format: in vivo, human (post-menopausal women). To be noted: all patients. From the text: Measures to minimise bias: randomisation and blinding. This is an open-label study. All patients will receive active treatment. As the Investigators will not be blinded to study treatments, a BICR of tumour scans will be performed to provide independent tumour response assessment in addition to response evaluation by Investigator. To reduce potential bias during the study, eligible patients will be randomly allocated at a 1:1:1:1 ratio to receive 1 of the 4 study treatments.
Blinded Independent Central Review of tumour assessments. Coded copies of all imaging assessments (regardless of modality and including unscheduled visit scans) will be sent to an appointed Contract Research Organisation (CRO) for central analysis. Results of this independent review will not be communicated to Investigators, and the management of patients will be based solely upon the results of the RECIST assessment conducted by the Investigator. The imaging scans will be reviewed by 2 independent radiologists using RECIST version 1.1 and will be adjudicated, if required (i.e., 2 reviewers will review the scans and, in case of a disagreement, adjudication is performed by a separate reviewer). The independent reviewers will be blinded to study treatment.
The BICR will be conducted on an ongoing basis throughout the study. Where possible scans will be batched, and an in-patient series of assessments read together. For each patient, the BICR will define the overall visit response (i.e., the response obtained overall at each visit by assessing TLs, NTLs, and new lesions) and no programmatic derivation of overall visit response is necessary.
Blinded independent central review of tumour response. A sensitivity analysis for the primary endpoint for this study will be based on the BICR of the radiological scans. For each patient, the BICR will define the overall visit response (i.e., the response obtained overall at each visit by assessing TLS, NTLs and new lesions) data and no programmatic derivation of visit response is necessary. PFS will be derived programmatically from the overall visit responses determined for each visit. A BICR of all patients will be performed for the final database lock for the primary analysis of PFS. The BICR will cover all available scans up to the respective DCO.
As a sensitivity analysis to the primary endpoint, the above analysis methods will be repeated based on the BICR.

Each structure is given as a SMILES string.

With `C[C@@H]1Cc2c(ccc3[nH]ncc23)[C@@H](c2ccc(NC3CN(CCCF)C3)cn2)N1CC(F)(F)F` [camizestrant, N-(1-(3-fluoropropyl)azetidin-3-yl)-6-((6S,8R)-8-methyl-7-(2,2,2-trifluoroethyl)-6,7,8,9-tetrahydro-3H-pyrazolo[4,3-f]isoquinolin-6-yl)pyridin-3-amine], the “Reduction in the level of ESR1m (ctDNA sVAF)” value in the experiment on ESR1m ctDNA (camizestrant 75 mg and 150 mg, all timepoints vs cycle 1 day 1) is given as about 100%. In addition, the “Hazard ratio for disease progression relative to fulvestrant” value in experiment [1] (camizestrant 75 mg once daily) was found to be 0.56; in experiment [1] (camizestrant 150 mg once daily), 0.47. Also, the “Median PFS” value in experiment [1] (camizestrant 75 mg once daily) was determined as 7.4 months; in experiment [1] (camizestrant 150 mg once daily), 12.7 months.
As to `C[C@]12CC[C@@H]3c4ccc(O)cc4C[C@@H](CCCCCCCCC[S+]([O-])CCCC(F)(F)C(F)(F)F)[C@H]3[C@@H]1CC[C@@H]2O` (stereo partly shown) [fulvestrant, reference compound], in the experiment on ESR1m ctDNA (fulvestrant arm, compared with camizestrant), the “Reduction in ESR1m ctDNA” value is listed as “the extent of the reduction is lower than that observed with camizestrant”. Also, the “Median PFS” value in experiment [1] (fulvestrant 500 mg once monthly injection) amounted to 3.7 months.
